In ChEMBL document CHEMBL1149805, “Antibacterial activity of a novel series of 3-bromo-4-(1H-3-indolyl)-2,5-dihydro-1H-2,5-pyrroledione derivatives--an extended structure-activity relationship study” (Eur J Med Chem, 2008):
In brackets after ≈: the same amount, converted by molar mass. Activity calls are given as the source filed them. No rule for the calls is given here.

Experiments:
[1] = Partition coefficient, log P of the compound; assay type: physicochemical; conditions: octanol/water
[2] = tested on: Candida albicans; assay: Antibacterial activity against Candida albicans after 24 hrs by broth microdilution method; assay type: functional, organism-based
[3] = tested on: Mycolicibacterium smegmatis; assay: Antibacterial activity against Mycobacterium smegmatis SG987 after 24 hrs by broth microdilution method; assay type: functional; conditions: for MIC: Mycolicibacterium smegmatis, SG987, 24 h
[4] = tested on: Escherichia coli; assay: Antibacterial activity against Escherichia coli after 24 hrs by broth microdilution method; assay type: functional, organism-based
[5] = tested on: Staphylococcus aureus; assay: Antibacterial activity against Staphylococcus aureus 134/93 after 24 hrs by broth microdilution method; assay type: functional; conditions: for MIC: Staphylococcus aureus, 134/93, 24 h

logP [1] | MIC [3] [µM] | MIC [5] [µM] | Compound | Activity [2] | -logMIC [3] | Activity [4] | -logMIC [5]
2.77 | 30.4 (≈ 12.5 µg/mL) | 3.8 (≈ 1.56 µg/mL) | CCOc1ccc2[nH]c(-c3ccccc3)c(C3=C(Br)C(=O)NC3=O)c2c1 | inactive | 4.5 | inactive | 5.4
3.43 |  | 0.1 (≈ 0.0469 µg/mL) | CCCCOc1ccc2[nH]c(-c3ccc(OC)cc3)c(C3=C(Br)C(=O)NC3=O)c2c1 | inactive |  | inactive | 7
2.56 | 55 (≈ 24.9 µg/mL) | 1.7 (≈ 0.769 µg/mL) | O=C(CCCc1[nH]c2ccccc2c1C1=C(Br)C(=O)NC1=O)Nc1ccccc1 | inactive | 4.3 | inactive | 5.8
2.48 | 31.5 (≈ 12.5 µg/mL) | 1 (≈ 0.397 µg/mL) | COc1ccc2[nH]c(-c3ccccc3)c(C3=C(Br)C(=O)NC3=O)c2c1 | inactive | 4.5 | inactive | 6
3.83 | 3.4 (≈ 1.54 µg/mL) | 0.44 (≈ 0.199 µg/mL) | CCCCc1ccc2[nH]c(-c3ccc(OC)cc3)c(C3=C(Br)C(=O)NC3=O)c2c1 | inactive | 5.5 | inactive | 6.4
 |  |  | CCCCCCc1ccc2[nH]c(-c3ccc(OC)cc3)c(C3=C(Br)C(=O)NC3=O)c2c1 | inactive |  | inactive | 
2.56 | 26 (≈ 12.1 µg/mL) | 1.7 (≈ 0.793 µg/mL) | O=C(CCCCc1[nH]c2ccccc2c1C1=C(Br)C(=O)NC1=O)Nc1ccccc1 | inactive | 4.6 | inactive | 5.8
4.1 |  |  | CCCCCCOc1ccc2[nH]c(-c3ccc(OC)cc3)c(C3=C(Br)C(=O)NC3=O)c2c1 | inactive |  | inactive | 
4.08 |  |  | CCCCCCOc1ccc2[nH]c(-c3ccccc3)c(C3=C(Br)C(=O)NC3=O)c2c1 | inactive |  | inactive | 
3.12 |  | 0.44 (≈ 0.2 µg/mL) | CCCOc1ccc2[nH]c(-c3ccc(OC)cc3)c(C3=C(Br)C(=O)NC3=O)c2c1 | inactive |  | inactive | 6.4
3.42 | 28.4 (≈ 12.5 µg/mL) | 0.11 (≈ 0.0483 µg/mL) | CCCCOc1ccc2[nH]c(-c3ccccc3)c(C3=C(Br)C(=O)NC3=O)c2c1 | inactive | 4.5 | inactive | 6.9
3.15 | 4 (≈ 1.58 µg/mL) | 0.13 (≈ 0.0514 µg/mL) | CCc1ccc2[nH]c(-c3ccccc3)c(C3=C(Br)C(=O)NC3=O)c2c1 | inactive | 5.4 | inactive | 6.9
 | 1.2 (≈ 0.398 µg/mL) | 38.1 (≈ 12.6 µg/mL) | O=C(O)c1cn(C2CC2)c2cc(N3CCNCC3)c(F)cc2c1=O [CIPROFLOXACIN] |  | 5.9 |  | 4.4
4.07 | 3.6 (≈ 1.57 µg/mL) | 0.91 (≈ 0.398 µg/mL) | CCCCCc1ccc2[nH]c(-c3ccccc3)c(C3=C(Br)C(=O)NC3=O)c2c1 | inactive | 5.5 | inactive | 6
2.85 | 7.6 (≈ 3.13 µg/mL) | 0.12 (≈ 0.0494 µg/mL) | COc1ccc(-c2[nH]c3ccc(C)cc3c2C2=C(Br)C(=O)NC2=O)cc1 | inactive | 5.1 | inactive | 6.9
3.74 | 1.9 (≈ 0.804 µg/mL) | 0.24 (≈ 0.102 µg/mL) | CCCCc1ccc2[nH]c(-c3ccccc3)c(C3=C(Br)C(=O)NC3=O)c2c1 | inactive | 5.7 | inactive | 6.6
3.81 | 3.16 (≈ 1.43 µg/mL) | 3.4 (≈ 1.54 µg/mL) | CCCCc1ccc2[nH]c(-c3cccc(OC)c3)c(C3=C(Br)C(=O)NC3=O)c2c1 | inactive | 5.5 | inactive | 5.5
2.88 | 4.1 (≈ 1.56 µg/mL) | 0.13 (≈ 0.0496 µg/mL) | Cc1ccc2[nH]c(-c3ccccc3)c(C3=C(Br)C(=O)NC3=O)c2c1 | inactive | 5.4 | inactive | 6.9
3.77 |  |  | CCCCCOc1ccc2[nH]c(-c3ccc(OC)cc3)c(C3=C(Br)C(=O)NC3=O)c2c1 | inactive |  | inactive | 
2.77 | 14.1 (≈ 6.22 µg/mL) | 2 (≈ 0.883 µg/mL) | CCOc1ccc2[nH]c(-c3ccc(OC)cc3)c(C3=C(Br)C(=O)NC3=O)c2c1 | inactive | 4.8 | inactive | 5.7

logP [1] | MIC [3] [µM] | MIC [5] [µM] | Compound | Activity [2] | -logMIC [3] | Activity [4] | -logMIC [5]
2.56 | 27 (≈ 12.6 µg/mL) | 1.58 (≈ 0.737 µg/mL) | Cc1ccc(NC(=O)CCCc2[nH]c3ccccc3c2C2=C(Br)C(=O)NC2=O)cc1 | inactive | 4.6 | inactive | 5.8
2.56 | 17.1 (≈ 7.97 µg/mL) | 0.32 (≈ 0.149 µg/mL) | Cc1ccccc1NC(=O)CCCc1[nH]c2ccccc2c1C1=C(Br)C(=O)NC1=O | inactive | 4.8 | inactive | 6.5
3.16 | 58.8 (≈ 25 µg/mL) | 0.95 (≈ 0.404 µg/mL) | CCCOc1ccc2[nH]c(-c3ccccc3)c(C3=C(Br)C(=O)NC3=O)c2c1 | inactive | 4.2 | inactive | 6
5.94 | 100 (≈ 52.3 µg/mL) |  | CCCCCCCCCCOc1ccc(-c2[nH]c3ccccc3c2C2=C(Br)C(=O)NC2=O)cc1 | inactive | 4 | inactive | 
3.3 | 25.1 (≈ 11.9 µg/mL) | 0.21 (≈ 0.0994 µg/mL) | O=C1NC(=O)C(c2c(-c3ccc(OCc4ccccc4)cc3)[nH]c3ccccc23)=C1Br | inactive | 4.6 | inactive | 6.7
3.92 | 6.31 (≈ 3.14 µg/mL) | 12.6 (≈ 6.27 µg/mL) | CCCCCCOc1ccc2[nH]c(-c3cccc(OC)c3)c(C3=C(Br)C(=O)NC3=O)c2c1 | inactive | 5.2 | inactive | 4.9
2.85 | 12.6 (≈ 6.23 µg/mL) | 0.1 (≈ 0.0494 µg/mL) | O=C(CCCCCCc1[nH]c2ccccc2c1C1=C(Br)C(=O)NC1=O)Nc1ccccc1 | inactive | 4.9 | inactive | 7
3.12 | 7.94 (≈ 3.27 µg/mL) | 0.2 (≈ 0.0823 µg/mL) | COc1cccc(-c2[nH]c3ccc(C)cc3c2C2=C(Br)C(=O)NC2=O)c1 | inactive | 5.1 | inactive | 6.6
3.76 | 3.16 (≈ 1.65 µg/mL) | 1.5 (≈ 0.785 µg/mL) | O=C1NC(=O)C(c2c(-c3ccc(OCc4cccc5ccccc45)cc3)[nH]c3ccccc23)=C1Br | inactive | 5.5 | inactive | 5.8
3.88 | 14.7 (≈ 6.22 µg/mL) | 0.25 (≈ 0.106 µg/mL) | CCCCc1cccc2c(C3=C(Br)C(=O)NC3=O)c(-c3ccccc3)[nH]c12 | inactive | 4.8 | inactive | 6.6
4.11 | 14.3 (≈ 6.25 µg/mL) | 0.5 (≈ 0.219 µg/mL) | CCCCCc1cccc2c(C3=C(Br)C(=O)NC3=O)c(-c3ccccc3)[nH]c12 | inactive | 4.9 | inactive | 6.3
3.58 | 14.2 (≈ 6.24 µg/mL) | 0.5 (≈ 0.22 µg/mL) | CCCc1cccc2c(C3=C(Br)C(=O)NC3=O)c(-c3ccc(OC)cc3)[nH]c12 | inactive | 4.8 | inactive | 6.3
3.81 |  | 0.25 (≈ 0.113 µg/mL) | CCCCc1cccc2c(C3=C(Br)C(=O)NC3=O)c(-c3ccc(OC)cc3)[nH]c12 | inactive |  | inactive | 6.6
4.26 | 6.31 (≈ 3.04 µg/mL) | 26 (≈ 12.5 µg/mL) | CCCCCCc1ccc2[nH]c(-c3cccc(OC)c3)c(C3=C(Br)C(=O)NC3=O)c2c1 | inactive | 5.2 | inactive | 4.6
2.68 | 26 (≈ 12.5 µg/mL) | 0.1 (≈ 0.048 µg/mL) | O=C(CCCCCc1[nH]c2ccccc2c1C1=C(Br)C(=O)NC1=O)Nc1ccccc1 | inactive | 4.6 | inactive | 7
3.35 | 3.98 (≈ 1.69 µg/mL) | 0.5 (≈ 0.213 µg/mL) | CCc1ccc2[nH]c(-c3cccc(OC)c3)c(C3=C(Br)C(=O)NC3=O)c2c1 | inactive | 5.4 | inactive | 6.3
5.21 | 100 (≈ 49.5 µg/mL) | 50 (≈ 24.8 µg/mL) | CCCCCCCCOc1ccc(-c2[nH]c3ccccc3c2C2=C(Br)C(=O)NC2=O)cc1 | inactive | 4 | inactive | 4.3
4.39 |  |  | CCCCCCc1ccc2[nH]c(-c3ccccc3)c(C3=C(Br)C(=O)NC3=O)c2c1 | inactive |  | inactive | 
4.27 |  | 0.4 (≈ 0.193 µg/mL) | CCCCCCc1cccc2c(C3=C(Br)C(=O)NC3=O)c(-c3ccc(OC)cc3)[nH]c12 | inactive |  | inactive | 6.4
